Assay results: PMC6440464 (PeerJ, 2019)
Values joined by “and” are separate entries in the source; they are usually repeats but may differ in a detail not shown here. Equal entries are not always repeated. Where two headings read alike, the source gives them in different places.

Assay: Pharmacokinetics study after separate oral administration in rats (HPLC-MS of plasma)
Format: in vivo, Sprague-Dawley rats
Conditions: for half-life: read-out: t1/2z
Experimental: A total of 15 SPF Sprague-Dawley rats (SD, male, 190–210 g) were provided by Sino-British Sippr/BK Lab Animal Company Ltd. (Shanghai, China). The rats were kept in standard conditions (22–26 °C; 40–60% relative humidity; 12 h light/dark cycle). Throughout the rearing period, the animals had access to food and water ad libitum. Animal experiments were conducted in accordance with the standard ethical guidelines of the Laboratory Animal Management Committee of Jiangsu Province (SYXK (SU) 2016-0011).
Following 1 week of adaptation, the rats were fasted for about 12 h before dosing, with free access to water. […] After administration of the first dose, blood samples were taken from the retro-orbital vein at 0, 5, 15, 30, 60, 90, 120, 180, 240, 360, 480, and 1,440 min and collected in heparinized tubes. The samples were centrifuged at 3,500 rpm for 10 min at 4 °C and the plasma was stored at −80 °C until analysis.
An Agilent 1,200 series HPLC system (Agilent Technologies, Waldbronn, Germany) equipped with a quaternary pump on-line degasser, auto-sampler and column oven, and an SL G1946D quadruple mass spectrometer (Agilent Technologies, Santa Clara, CA, USA) equipped with an electrospray ionization (ESI) source, were used for separation and detection. Data were acquired and analyzed using Agilent ChemStation Software Version A.01.00 (Agilent Technologies, Santa Clara, CA, USA).
The separation was carried out with an Amethyst C18-H column (150 × 4.6 mm, 5 μm, Sepax Technologies, Newark, DE, USA) with a guard column SB-C18 (10 × 4.6 mm, 5 μm, Phenomenex Technologies, Torrance, USA) at a constant temperature of 25 °C.
The mass spectra were acquired using ESI interfaced to a single quadrupole mass spectrometer. The ionization conditions were as follows: drying gas (N2) flow rate of 11 L/min, drying gas temperature of 350 °C, nebulizing gas (N2) pressure of 35 psi, capillary voltage of 3,500 V, quad temperature of 100 °C, and fragment voltage of 110 V. A series of m/z were monitored using a timed program according to the retention times and characteristic ions for the corresponding HPLC-MS peak obtained by scanning from m/z 100–1,000 in the standard sample.
Briefly, an aliquot of plasma sample (100 μL) was spiked with 5% formic acid (10 μL) in centrifuge tube. Subsequently, hydrochloric acid (2 mol/L, 10 μL) and IS solution (960.00 ng/mL, 20 μL) were added. Then ethyl acetate/n-butyl alcohol (1:1 v/v; 1,000 μL) was used to extract the components. The samples were then homogenized by vortex mixing and centrifuged for 10 min at 14,000 rpm. After centrifugation, 800 μL of supernatant was transferred to another centrifuge tube and the sample was evaporated to dryness. The residues were dissolved in 100 μL of methanol and centrifuged for 10 min at 12,000 rpm. 50 μL of the supernatant was transferred to the vial and an aliquot of 5 μL was injected into the HPLC-MS system for analysis.
DAS 2.0 (Chinese Pharmacological Association, Shanghai, China) was used to calculate the pharmacokinetic parameters using the non-compartment model, including the area under curve (AUC), mean residence time (MRT), half-life ( t1/2z), clearance rate (CL), maximum plasma concentration (Cmax), and time (Tmax). All results are expressed as mean ± standard deviation (SD). One way analysis of variance followed by […] was used for comparison of different groups using Graph pad prism 5 software. A p-value of <0.05 was considered statistically significant.

[1] = IQ group (oral IQ 50 mg/kg), rat plasma, labelled substance = analyte, individual rats No1-No5

O=c1c(O[C@@H]2O[C@H](CO)[C@@H](O)[C@H](O)[C@H]2O)c(-c2ccc(O)c(O)c2)oc2cc(O)cc(O)c12 [IQ, Isoquercitrin]
Plasma concentrations (IQ group (oral IQ 50 mg/kg), 5 min, individual rats NO. 1-5): 0.0934 µg/mL and 0.0774 µg/mL and 0.0493 µg/mL and 0.0335 µg/mL and 0.1108 µg/mL | Plasma concentrations (IQ group (oral IQ 50 mg/kg), 15 min, individual rats NO. 1-5): 0.3981 µg/mL and 0.2105 µg/mL and 0.1113 µg/mL and 0.0464 µg/mL and 0.3803 µg/mL | Plasma concentrations (IQ group (oral IQ 50 mg/kg), 30 min, individual rats NO. 1-5): 0.3658 µg/mL and 0.4136 µg/mL and 0.1507 µg/mL and 0.3866 µg/mL and 0.3886 µg/mL | Plasma concentrations (IQ group (oral IQ 50 mg/kg), 60 min, individual rats NO. 1-5): 0.1335 µg/mL and 0.1563 µg/mL and 0.1140 µg/mL and 0.0299 µg/mL and 0.2027 µg/mL | Plasma concentrations (IQ group (oral IQ 50 mg/kg), 90 min, individual rats NO. 1-5): 0.0372 µg/mL and 0.1114 µg/mL and 0.0310 µg/mL and 0.0260 µg/mL and 0.1543 µg/mL | Plasma concentrations (IQ group (oral IQ 50 mg/kg), 120 min, individual rats NO. 1-5): 0.0000 μg/mL (3×) and 0.0534 μg/mL and 0.0884 μg/mL | Plasma concentrations (IQ group (oral IQ 50 mg/kg), 180 min, individual rats NO. 1-5): 0.0000 µg/mL | Plasma concentrations (IQ group (oral IQ 50 mg/kg), 240 min, individual rats NO. 1-5): 0.0000 µg/mL | Plasma concentrations (IQ group (oral IQ 50 mg/kg), 360 min, individual rats NO. 1-5): 0.0000 µg/mL | Plasma concentrations (IQ group (oral IQ 50 mg/kg), 480 min, individual rats NO. 1-5): 0.0000 µg/mL | Plasma concentrations (IQ group (oral IQ 50 mg/kg), 1440 min, individual rats NO. 1-5): 0.0000 µg/mL | AUC(0-t) [1]: 307.8 ng·h/mL and 355.8 ng·h/mL and 150.6 ng·h/mL and 180.27 ng·h/mL and 439.42 ng·h/mL | CLz/F [1]: 2565 mL/min/kg and 2104 mL/min/kg and 4792 mL/min/kg and 3572 mL/min/kg and 1528 mL/min/kg | Cmax [1]: 398.1 ng/mL and 413.6 ng/mL and 150.7 ng/mL and 386.6 ng/mL and 388.6 ng/mL | MRT(0-t) [1]: 46.827 min and 41.112 min and 33.266 min and 48.488 min | Tmax [1]: 30 min | t1/2z [1]: 18.181 min and 30.631 min and 26.313 min and 87.922 min and 49.884 min | Detection in rat plasma (IQ group: oral IQ 50 mg/kg): could be detected in rat plasma | Time until which the AUC could be accessed (IQ group: oral IQ 50 mg/kg): 90 to 120 min | CL (IQ group: oral IQ 50 mg/kg, rat plasma, mean ± SD, n = 5): 2910 ± 1290 mL/min/kg | concentration at 180 min (male, Sprague-Dawley, rat, plasma, oral, 50 mg/kg, IQ group (oral IQ 50 mg/kg), 180 min, individual rats NO. 1-5, read-out: Plasma concentrations): 0 ng/mL | concentration at 240 min (male, Sprague-Dawley, rat, plasma, oral, 50 mg/kg, IQ group (oral IQ 50 mg/kg), 240 min, individual rats NO. 1-5, read-out: Plasma concentrations): 0 ng/mL | concentration at 360 min (male, Sprague-Dawley, rat, plasma, oral, 50 mg/kg, IQ group (oral IQ 50 mg/kg), 360 min, individual rats NO. 1-5, read-out: Plasma concentrations): 0 ng/mL | concentration at 480 min (male, Sprague-Dawley, rat, plasma, oral, 50 mg/kg, IQ group (oral IQ 50 mg/kg), 480 min, individual rats NO. 1-5, read-out: Plasma concentrations): 0 ng/mL | concentration at 1440 min (male, Sprague-Dawley, rat, plasma, oral, 50 mg/kg, IQ group (oral IQ 50 mg/kg), 1440 min, individual rats NO. 1-5, read-out: Plasma concentrations): 0 ng/mL | MRT last (male, Sprague-Dawley, rat, plasma, po, 50 mg/kg, IQ group (oral IQ 50 mg/kg), rat plasma, labelled substance = analyte, individual rats No1-No5, read-out: MRT(0-t) (converted)): 33.3 min | Tmax (male, Sprague-Dawley, rat, plasma, po, 50 mg/kg, IQ group (oral IQ 50 mg/kg), rat plasma, labelled substance = analyte, individual rats No1-No5, read-out: Tmax (converted)): 15 min | AUC(0-t) (male, Sprague-Dawley, rat, plasma, po, 50 mg/kg, IQ group (oral IQ 50 mg/kg), rat plasma, labelled substance = analyte, mean of 5 rats, read-out: AUC(0-t) (converted)): 287 ng·h/mL | CL/F (male, Sprague-Dawley, rat, plasma, po, 50 mg/kg, IQ group (oral IQ 50 mg/kg), rat plasma, labelled substance = analyte, mean of 5 rats, read-out: CLz/F): 2910 mL/min/kg | Cmax (male, Sprague-Dawley, rat, plasma, po, 50 mg/kg, IQ group (oral IQ 50 mg/kg), rat plasma, labelled substance = analyte, mean of 5 rats, read-out: Cmax): 348 ng/mL | MRT last (male, Sprague-Dawley, rat, plasma, po, 50 mg/kg, IQ group (oral IQ 50 mg/kg), rat plasma, labelled substance = analyte, mean of 5 rats, read-out: MRT(0-t) (converted)): 40.6 min | Tmax (male, Sprague-Dawley, rat, plasma, po, 50 mg/kg, IQ group (oral IQ 50 mg/kg), rat plasma, labelled substance = analyte, mean of 5 rats, read-out: Tmax (converted)): 27 min | half-life (male, Sprague-Dawley, rat, plasma, po, 50 mg/kg, IQ group (oral IQ 50 mg/kg), rat plasma, labelled substance = analyte, mean of 5 rats): 42.6 min | AUC(0-t) (male, Sprague-Dawley, rat, plasma, po, 50 mg/kg, IQ group: oral IQ 50 mg/kg, rat plasma, mean ± SD, n = 5, read-out: AUC0−t (converted)): 287 ng·h/mL | Cmax (male, Sprague-Dawley, rat, plasma, po, 50 mg/kg, IQ group: oral IQ 50 mg/kg, rat plasma, mean ± SD, n = 5, read-out: Cmax): 350 ± 110 ng/mL | MRT last (male, Sprague-Dawley, rat, plasma, po, 50 mg/kg, IQ group: oral IQ 50 mg/kg, rat plasma, mean ± SD, n = 5, read-out: MRT0−t (converted)): 40.6 min | Tmax (male, Sprague-Dawley, rat, plasma, po, 50 mg/kg, IQ group: oral IQ 50 mg/kg, rat plasma, mean ± SD, n = 5, read-out: Tmax (converted)): 27 min | half-life (male, Sprague-Dawley, rat, plasma, po, 50 mg/kg, IQ group: oral IQ 50 mg/kg, rat plasma, mean ± SD, n = 5): 42.6 ± 27.9 min
